Laboratory results reported in the NIST ThermoML archive (doi:10.1016/j.fluid.2015.03.048).
Numbers after ± are expanded uncertainties.

Assay: xn = mol fraction of the nth substance listed
Conditions: 303.15 K, 100 kPa, Liquid; for viscosity: Capillary tube (Ostwald / Ubbelohde) method; for excess molar volume: Direct dilatometry; for speed of sound: Frequency=3 MHz, Sing-around technique in a fixed-path interferometer; for mass density: Pycnometric method

## Cc1ccccc1[N+](=O)[O-] [2-nitrotoluene] + CC(=O)N(C)C
x2 = 0.1025
  viscosity: 1.905 ± 0.023 mPa·s
  excess molar volume: 1.4e-08 ± 6e-09 m3/mol
x2 = 0.1527
  viscosity: 1.877 ± 0.022 mPa·s
  excess molar volume: 2e-08 ± 6e-09 m3/mol
x2 = 0.1835
  viscosity: 1.857 ± 0.022 mPa·s
  excess molar volume: 2.5e-08 ± 6e-09 m3/mol
x2 = 0.2165
  viscosity: 1.835 ± 0.022 mPa·s
  excess molar volume: 2.8e-08 ± 6e-09 m3/mol
x2 = 0.2775
  viscosity: 1.788 ± 0.021 mPa·s
  excess molar volume: 3.5e-08 ± 6e-09 m3/mol
x2 = 0.3067
  viscosity: 1.763 ± 0.021 mPa·s
  excess molar volume: 4e-08 ± 6e-09 m3/mol
x2 = 0.3641
  viscosity: 1.715 ± 0.02 mPa·s
  excess molar volume: 4.7e-08 ± 6e-09 m3/mol
x2 = 0.4211
  viscosity: 1.663 ± 0.02 mPa·s
  excess molar volume: 5.3e-08 ± 6e-09 m3/mol
x2 = 0.4727
  viscosity: 1.613 ± 0.019 mPa·s
  excess molar volume: 5.8e-08 ± 6e-09 m3/mol
x2 = 0.5262
  viscosity: 1.559 ± 0.019 mPa·s
  excess molar volume: 6e-08 ± 6e-09 m3/mol
x2 = 0.6053
  viscosity: 1.474 ± 0.018 mPa·s
  excess molar volume: 5.8e-08 ± 6e-09 m3/mol
x2 = 0.7204
  viscosity: 1.336 ± 0.017 mPa·s
  excess molar volume: 4.5e-08 ± 6e-09 m3/mol
x2 = 0.8162
  viscosity: 1.203 ± 0.015 mPa·s
  excess molar volume: 3.2e-08 ± 6e-09 m3/mol
x2 = 0.895
  viscosity: 1.074 ± 0.014 mPa·s
  excess molar volume: 2e-08 ± 6e-09 m3/mol
x2 = 0.967
  viscosity: 0.937 ± 0.013 mPa·s
  excess molar volume: 7e-09 ± 6e-09 m3/mol
x2 = 0.0824
  speed of sound: 2046 ± 3 m/s
  mass density: 1135.81 ± 11 kg/m3
x2 = 0.124
  speed of sound: 2006 ± 3 m/s
  mass density: 1126.98 ± 11 kg/m3
x2 = 0.1501
  speed of sound: 1978 ± 3 m/s
  mass density: 1121.45 ± 11 kg/m3
x2 = 0.1784
  speed of sound: 1956 ± 3 m/s
  mass density: 1115.46 ± 11 kg/m3
x2 = 0.2318
  speed of sound: 1897 ± 3 m/s
  mass density: 1104.13 ± 11 kg/m3
x2 = 0.2579
  speed of sound: 1874 ± 3 m/s
  mass density: 1098.58 ± 11 kg/m3
x2 = 0.3103
  speed of sound: 1817 ± 3 m/s
  mass density: 1087.46 ± 11 kg/m3
x2 = 0.3637
  speed of sound: 1773 ± 3 m/s
  mass density: 1076.12 ± 11 kg/m3
x2 = 0.4133
  speed of sound: 1734 ± 3 m/s
  mass density: 1065.58 ± 11 kg/m3
x2 = 0.466
  speed of sound: 1696 ± 3 m/s
  mass density: 1054.4 ± 11 kg/m3
x2 = 0.5465
  speed of sound: 1650 ± 3 m/s
  mass density: 1037.36 ± 10 kg/m3
x2 = 0.6694
  speed of sound: 1592 ± 3 m/s
  mass density: 1011.4 ± 10 kg/m3
x2 = 0.7773
  speed of sound: 1547 ± 3 m/s
  mass density: 988.58 ± 9.9 kg/m3
x2 = 0.8701
  speed of sound: 1506 ± 3 m/s
  mass density: 968.9 ± 9.7 kg/m3
x2 = 0.9584
  speed of sound: 1463 ± 3 m/s
  mass density: 950.18 ± 9.5 kg/m3

## Cc1cccc(Cl)c1 [3-chlorotoluene] + CC(=O)N(C)C
x2 = 0.0838
  viscosity: 0.783 ± 0.012 mPa·s
  excess molar volume: -1e-08 ± 6e-09 m3/mol
x2 = 0.1242
  viscosity: 0.786 ± 0.012 mPa·s
  excess molar volume: -1.4e-08 ± 6e-09 m3/mol
x2 = 0.1811
  viscosity: 0.789 ± 0.012 mPa·s
  excess molar volume: -2e-08 ± 6e-09 m3/mol
x2 = 0.2107
  viscosity: 0.805 ± 0.012 mPa·s
  excess molar volume: -2.3e-08 ± 6e-09 m3/mol
x2 = 0.2702
  viscosity: 0.811 ± 0.012 mPa·s
  excess molar volume: -2.7e-08 ± 6e-09 m3/mol
x2 = 0.3152
  viscosity: 0.817 ± 0.013 mPa·s
  excess molar volume: -3e-08 ± 6e-09 m3/mol
x2 = 0.3897
  viscosity: 0.823 ± 0.013 mPa·s
  excess molar volume: -3.5e-08 ± 6e-09 m3/mol
x2 = 0.4165
  viscosity: 0.828 ± 0.013 mPa·s
  excess molar volume: -3.6e-08 ± 6e-09 m3/mol
x2 = 0.5035
  viscosity: 0.832 ± 0.013 mPa·s
  excess molar volume: -3.7e-08 ± 6e-09 m3/mol
x2 = 0.5465
  viscosity: 0.837 ± 0.013 mPa·s
  excess molar volume: -3.6e-08 ± 6e-09 m3/mol
x2 = 0.6251
  viscosity: 0.841 ± 0.013 mPa·s
  excess molar volume: -3.4e-08 ± 6e-09 m3/mol
x2 = 0.7152
  viscosity: 0.846 ± 0.013 mPa·s
  excess molar volume: -2.8e-08 ± 6e-09 m3/mol
x2 = 0.7517
  viscosity: 0.85 ± 0.013 mPa·s
  excess molar volume: -2.5e-08 ± 6e-09 m3/mol
x2 = 0.8204
  viscosity: 0.855 ± 0.013 mPa·s
  excess molar volume: -1.9e-08 ± 6e-09 m3/mol
x2 = 0.9345
  viscosity: 0.86 ± 0.013 mPa·s
  excess molar volume: -9e-09 ± 6e-09 m3/mol
x2 = 0.0671
  speed of sound: 1298 ± 3 m/s
  mass density: 1063.49 ± 11 kg/m3
x2 = 0.1003
  speed of sound: 1307 ± 3 m/s
  mass density: 1059.19 ± 11 kg/m3
x2 = 0.1481
  speed of sound: 1317 ± 3 m/s
  mass density: 1053.01 ± 11 kg/m3
x2 = 0.1735
  speed of sound: 1322 ± 3 m/s
  mass density: 1049.73 ± 11 kg/m3
x2 = 0.2255
  speed of sound: 1333 ± 3 m/s
  mass density: 1042.98 ± 10 kg/m3
x2 = 0.2658
  speed of sound: 1343 ± 3 m/s
  mass density: 1037.75 ± 10 kg/m3
x2 = 0.3343
  speed of sound: 1356 ± 3 m/s
  mass density: 1028.85 ± 10 kg/m3
x2 = 0.3595
  speed of sound: 1362 ± 3 m/s
  mass density: 1025.57 ± 10 kg/m3
x2 = 0.4436
  speed of sound: 1378 ± 3 m/s
  mass density: 1014.58 ± 10 kg/m3
x2 = 0.4865
  speed of sound: 1385 ± 3 m/s
  mass density: 1008.96 ± 10 kg/m3
x2 = 0.5673
  speed of sound: 1399 ± 3 m/s
  mass density: 998.38 ± 10 kg/m3
x2 = 0.6638
  speed of sound: 1412 ± 3 m/s
  mass density: 985.69 ± 9.9 kg/m3
x2 = 0.7042
  speed of sound: 1416 ± 3 m/s
  mass density: 980.38 ± 9.8 kg/m3
x2 = 0.7822
  speed of sound: 1424 ± 3 m/s
  mass density: 970.1 ± 9.7 kg/m3
x2 = 0.9182
  speed of sound: 1440 ± 3 m/s
  mass density: 952.18 ± 9.6 kg/m3

## Cc1cccc([N+](=O)[O-])c1 [3-nitrotoluene] + CC(=O)N(C)C
x2 = 0.0851
  viscosity: 1.76 ± 0.021 mPa·s
  excess molar volume: 1.8e-08 ± 6e-09 m3/mol
x2 = 0.1552
  viscosity: 1.752 ± 0.021 mPa·s
  excess molar volume: 3e-08 ± 6e-09 m3/mol
x2 = 0.242
  viscosity: 1.71 ± 0.02 mPa·s
  excess molar volume: 4.2e-08 ± 6e-09 m3/mol
x2 = 0.2931
  viscosity: 1.686 ± 0.02 mPa·s
  excess molar volume: 4.9e-08 ± 6e-09 m3/mol
x2 = 0.3451
  viscosity: 1.646 ± 0.02 mPa·s
  excess molar volume: 5.4e-08 ± 6e-09 m3/mol
x2 = 0.4062
  viscosity: 1.603 ± 0.019 mPa·s
  excess molar volume: 5.9e-08 ± 6e-09 m3/mol
x2 = 0.455
  viscosity: 1.568 ± 0.019 mPa·s
  excess molar volume: 6.2e-08 ± 6e-09 m3/mol
x2 = 0.5191
  viscosity: 1.519 ± 0.018 mPa·s
  excess molar volume: 6.5e-08 ± 6e-09 m3/mol
x2 = 0.5532
  viscosity: 1.492 ± 0.018 mPa·s
  excess molar volume: 6.6e-08 ± 6e-09 m3/mol
x2 = 0.603
  viscosity: 1.451 ± 0.018 mPa·s
  excess molar volume: 6.6e-08 ± 6e-09 m3/mol
x2 = 0.6512
  viscosity: 1.408 ± 0.017 mPa·s
  excess molar volume: 6.5e-08 ± 6e-09 m3/mol
x2 = 0.7125
  viscosity: 1.348 ± 0.017 mPa·s
  excess molar volume: 6.3e-08 ± 6e-09 m3/mol
x2 = 0.7561
  viscosity: 1.3 ± 0.016 mPa·s
  excess molar volume: 5.9e-08 ± 6e-09 m3/mol
x2 = 0.8151
  viscosity: 1.224 ± 0.016 mPa·s
  excess molar volume: 5.1e-08 ± 6e-09 m3/mol
x2 = 0.9727
  viscosity: 0.935 ± 0.013 mPa·s
  excess molar volume: 1.2e-08 ± 6e-09 m3/mol
x2 = 0.0678
  speed of sound: 2077 ± 3 m/s
  mass density: 1133.63 ± 11 kg/m3
x2 = 0.1256
  speed of sound: 2039 ± 3 m/s
  mass density: 1121.68 ± 11 kg/m3
x2 = 0.1998
  speed of sound: 1958 ± 3 m/s
  mass density: 1106.36 ± 11 kg/m3
x2 = 0.2449
  speed of sound: 1906 ± 3 m/s
  mass density: 1097.04 ± 11 kg/m3
x2 = 0.291
  speed of sound: 1857 ± 3 m/s
  mass density: 1087.34 ± 11 kg/m3
x2 = 0.3485
  speed of sound: 1802 ± 3 m/s
  mass density: 1075.63 ± 11 kg/m3
x2 = 0.395
  speed of sound: 1763 ± 3 m/s
  mass density: 1066.03 ± 11 kg/m3
x2 = 0.4577
  speed of sound: 1729 ± 3 m/s
  mass density: 1053.07 ± 11 kg/m3
x2 = 0.4919
  speed of sound: 1699 ± 3 m/s
  mass density: 1046.01 ± 10 kg/m3
x2 = 0.5429
  speed of sound: 1676 ± 3 m/s
  mass density: 1035.49 ± 10 kg/m3
x2 = 0.5935
  speed of sound: 1656 ± 3 m/s
  mass density: 1025.05 ± 10 kg/m3
x2 = 0.6596
  speed of sound: 1632 ± 3 m/s
  mass density: 1011.39 ± 10 kg/m3
x2 = 0.708
  speed of sound: 1616 ± 3 m/s
  mass density: 1001.42 ± 10 kg/m3
x2 = 0.7751
  speed of sound: 1589 ± 3 m/s
  mass density: 987.57 ± 9.9 kg/m3
x2 = 0.9654
  speed of sound: 1473 ± 3 m/s
  mass density: 948.44 ± 9.5 kg/m3
